Tests used:
HeLa [1] = test: Cytotoxicity against human HeLa cells after 7 days by MTT assay; assay type: functional, cell-based; settings: 168 h
[2] = Cytotoxicity against human resting lymphocytes after 3 days by MTT assay; assay type: cell-based; settings: Lymphocyte, 72 h
[3] = Cytotoxicity against phytohaemagglutinin-stimulated human lymphocytes after 3 days by MTT assay; assay type: cell-based; settings: Lymphocyte, 72 h
Plasmodium falciparum [4] = test: Resistance index, ratio of IC50 for chloroquine-resistant Plasmodium falciparum Dd2 to IC50 for chloroquine-sensitive Plasmodium falciparum D10; assay type: functional
HeLa [5] = test: Tumor specificity, ratio of IC50 for human resting and phytohaemagglutinin-stimulated lymphocytes to IC50 for human HeLa cells
Plasmodium falciparum [6] = test: Antiplasmodial activity against chloroquine-resistant Plasmodium falciparum Dd2; assay type: functional, organism-based
Plasmodium falciparum [7] = test: Antiplasmodial activity against chloroquine-sensitive Plasmodium falciparum D10; assay type: functional, organism-based

Compound	IC50 (HeLa [1])	IC50 [2]	IC50 [3]	Ratio IC50 (Plasmodium falciparum [4])	Ratio IC50 (HeLa [5])	IC50 (Plasmodium falciparum [6])	IC50 (Plasmodium falciparum [7])
C=CC(=O)O[C@@H]1O[C@@H]2O[C@@]3(C)CC[C@H]4[C@H](C)CC[C@@H]([C@H]1C)[C@@]24OO3	6370 nM	39600 nM	11500 nM	1.6	4	9.27 nM	5.85 nM
C[C@H]1[C@H](OC(=O)CCN2CCOCC2)O[C@@H]2O[C@@]3(C)CC[C@H]4[C@H](C)CC[C@@H]1[C@@]24OO3	4800 nM	> 50000 nM	27300 nM	1.4	5.7	9.02 nM	6.23 nM
Clc1ccc2c(N3CCNCC3)ccnc2c1	27600 nM	–	–	1.1	–	1640 nM	1460 nM
NCCCCNc1ccnc2cc(Cl)ccc12	11200 nM	–	–	4.7	–	2270 nM	483 nM
C[C@@H]1CC[C@H]2[C@@H](C)C(=O)O[C@@H]3O[C@@]4(C)CC[C@@H]1[C@]32OO4 [ARTEMISININ]	–	–	–	1	–	–	–
CCN(CC)CCC(=O)O[C@@H]1O[C@@H]2O[C@@]3(C)CC[C@H]4[C@H](C)CC[C@@H]([C@H]1C)[C@@]24OO3	6020 nM	> 50000 nM	30400 nM	1	5	13.6 nM	13 nM
C=CC(=O)O[C@H]1O[C@@H]2O[C@@]3(C)CC[C@H]4[C@H](C)CC[C@@H]([C@H]1C)[C@@]24OO3	2880 nM	30500 nM	9220 nM	1.6	6.9	12.4 nM	7.54 nM
C[C@H]1[C@@H](OC(=O)CCN2CCN(c3ccnc4cc(Cl)ccc34)CC2)O[C@@H]2O[C@@]3(C)CC[C@H]4[C@H](C)CC[C@@H]1[C@@]24OO3	6580 nM	44600 nM	14000 nM	1	4.5	10 nM	10.1 nM
C[C@H]1[C@@H](OC(=O)CCNCCNc2ccnc3cc(Cl)ccc23)O[C@@H]2O[C@@]3(C)CC[C@H]4[C@H](C)CC[C@@H]1[C@@]24OO3	9470 nM	> 50000 nM	16900 nM	1	1.8	20.1 nM	20.6 nM
C[C@H]1[C@H](OC(=O)CCN2CCN(c3ccccc3)CC2)O[C@@H]2O[C@@]3(C)CC[C@H]4[C@H](C)CC[C@@H]1[C@@]24OO3	5760 nM	> 50000 nM	27600 nM	1.3	4.8	7.3 nM	5.59 nM
C[C@H]1[C@H](OC(=O)CCN(C)Cc2ccccc2)O[C@@H]2O[C@@]3(C)CC[C@H]4[C@H](C)CC[C@@H]1[C@@]24OO3	4480 nM	> 50000 nM	25000 nM	1.2	5.6	6.16 nM	5.3 nM
CC(C)NCCC(=O)O[C@@H]1O[C@@H]2O[C@@]3(C)CC[C@H]4[C@H](C)CC[C@@H]([C@H]1C)[C@@]24OO3	13000 nM	–	–	1.1	–	18.7 nM	16.9 nM
C[C@H]1[C@@H](OC(=O)CCNCCCCCCNc2ccnc3cc(Cl)ccc23)O[C@@H]2O[C@@]3(C)CC[C@H]4[C@H](C)CC[C@@H]1[C@@]24OO3	370 nM	19000 nM	3400 nM	0.9	30.7	53.6 nM	55.6 nM
C[C@H]1[C@H](OC(=O)CCN2CCNCC2)O[C@@H]2O[C@@]3(C)CC[C@H]4[C@H](C)CC[C@@H]1[C@@]24OO3	8910 nM	> 50000 nM	31000 nM	1.7	3.5	16 nM	9.22 nM
C[C@H]1[C@H](OC(=O)CCN2CCN(C)CC2)O[C@@H]2O[C@@]3(C)CC[C@H]4[C@H](C)CC[C@@H]1[C@@]24OO3	6550 nM	> 50000 nM	27200 nM	1.8	4.1	12.6 nM	7.16 nM
NCCCNc1ccnc2cc(Cl)ccc12	9830 nM	–	–	5.2	–	1250 nM	240 nM
NCCNc1ccnc2cc(Cl)ccc12	7220 nM	–	–	4.9	–	1140 nM	231 nM
C[C@H]1[C@@H](OC(=O)CCNCCCCNc2ccnc3cc(Cl)ccc23)O[C@@H]2O[C@@]3(C)CC[C@H]4[C@H](C)CC[C@@H]1[C@@]24OO3	10100 nM	32400 nM	8990 nM	1.1	2	27.5 nM	24 nM
C[C@H]1[C@@H](OC(=O)CCNCCCNc2ccnc3cc(Cl)ccc23)O[C@@H]2O[C@@]3(C)CC[C@H]4[C@H](C)CC[C@@H]1[C@@]24OO3	5580 nM	21500 nM	4710 nM	1.3	2.4	24.4 nM	18.7 nM
C[C@H]1[C@H](OC(=O)CCN2CCCC2)O[C@@H]2O[C@@]3(C)CC[C@H]4[C@H](C)CC[C@@H]1[C@@]24OO3	–	–	–	1	–	11.4 nM	11.3 nM
C[C@H]1[C@@H](O)O[C@@H]2O[C@@]3(C)CC[C@H]4[C@H](C)CC[C@@H]1[C@@]24OO3 [ARTENIMOL]	–	–	–	0.75	–	3 nM	4.1 nM
NCCCCCCNc1ccnc2cc(Cl)ccc12	15700 nM	–	–	0.9	–	1860 nM	2160 nM

From ChEMBL document CHEMBL1770072, “Antiplasmodial and antitumor activity of dihydroartemisinin analogs derived via the aza-Michael addition reaction” (Bioorg Med Chem Lett, 2011)
